Assay in one data set: not given
To be noted: rat, in vivo.
With `CCn1cc(C(=O)O)c(=O)c2cc(F)c(N3CCNCC3)cc21` [Norfloxacin], the “% Enhancement in bioavailability, Piperine + BE from Zingiber officinale” value is “Negligible”.

Regarding `CC[C@H]1OC(=O)[C@H](C)[C@@H](O[C@H]2C[C@@](C)(OC)[C@@H](O)[C@H](C)O2)[C@H](C)[C@@H](O[C@@H]2O[C@H](C)C[C@H](N(C)C)[C@H]2O)[C@](C)(O)C[C@@H](C)CN(C)[C@H](C)[C@@H](O)[C@]1(C)O` [Azithromycin], the “% Enhancement in bioavailability, Piperine + BE from Zingiber officinale” value amounted to 85%.

Take `CC1COc2c(N3CCN(C)CC3)c(F)cc3c(=O)c(C(=O)O)cn1c23` (centres unmarked) [O-floxacin, Ofloxacin]: the “% Enhancement in bioavailability, Piperine + BE from Zingiber officinale” value turned out to be 67%.

For the compound `NNC(=O)c1ccncc1` [Isoniazid], the “% Enhancement in bioavailability, Piperine + BE from Zingiber officinale” value is “Negligible”.

For the compound `C=CC[C@@H]1/C=C(\C)C[C@H](C)C[C@H](OC)[C@H]2O[C@@](O)(C(=O)C(=O)N3CCCC[C@H]3C(=O)O[C@H](/C(C)=C/[C@@H]3CC[C@@H](O)[C@H](OC)C3)[C@H](C)[C@@H](O)CC1=O)[C@H](C)C[C@@H]2OC` [Tacrolimus], the “% Enhancement in bioavailability, Piperine + BE from Zingiber officinale” value stood at 117%.

Consider `NC(=O)c1cnccn1` [Pyrazinamide], for which the “% Enhancement in bioavailability, Piperine + BE from Zingiber officinale” value is on record as “Nil”.

Regarding `CC[C@H]1OC(=O)[C@H](C)[C@@H](O[C@H]2C[C@@](C)(OC)[C@@H](O)[C@H](C)O2)[C@H](C)[C@@H](O[C@@H]2O[C@H](C)C[C@H](N(C)C)[C@H]2O)[C@](C)(O)C[C@@H](C)/C(=N\OCOCCOC)[C@H](C)[C@@H](O)[C@]1(C)O` [Roxythromycin], the “% Enhancement in bioavailability, Piperine + BE from Zingiber officinale” value came to 93%.

In the case of `CC1=C(C(=O)O)N2C(=O)[C@@H](NC(=O)[C@H](N)c3ccc(O)cc3)[C@H]2SC1` [Cefadroxil], the “% Enhancement in bioavailability, Piperine + BE from Zingiber officinale” value was 65%.

In the case of `NCC[C@H](O)C(=O)N[C@@H]1C[C@H](N)[C@@H](O[C@H]2O[C@H](CN)[C@@H](O)[C@H](O)[C@H]2O)[C@H](O)[C@H]1O[C@H]1O[C@H](CO)[C@@H](O)[C@H](N)[C@H]1O` [Amikacin], the “% Enhancement in bioavailability, Piperine + BE from Zingiber officinale” value is on record as “Nil”.

As for `CN1C(C(=O)Nc2ccccn2)=C(O)c2ccccc2S1(=O)=O` [Piroxicam], the “% Enhancement in bioavailability, Piperine + BE from Zingiber officinale” value is reported as 134%.

On to `Nc1nc2c(ncn2COCCO)c(=O)[nH]1` [Acyclovir], for which the “% Enhancement in bioavailability, Piperine + BE from Zingiber officinale” value came out at 85%.

On to `C=CC1=C(C(=O)O)N2C(=O)[C@@H](NC(=O)/C(=N\OCC(=O)O)c3csc(N)n3)[C@H]2SC1` [Cefixime], for which the “% Enhancement in bioavailability, Piperine + BE from Zingiber officinale” value is “Nil”.

As for `N[C@@H]1CON=C1O` [Cycloserine], the “% Enhancement in bioavailability, Piperine + BE from Zingiber officinale” value worked out at 70%.

For `CC[C@@H](CO)NCCN[C@@H](CC)CO` [Ethambutol], the “% Enhancement in bioavailability, Piperine + BE from Zingiber officinale” value was “Nil”.

In the case of `CCOC(=O)C1=C(COCCN)NC(C)=C(C(=O)OC)C1c1ccccc1Cl` (centres unmarked) [Amlodipine], the “% Enhancement in bioavailability, Piperine + BE from Zingiber officinale” value came out at 95%.

Take `Cc1onc(-c2ccccc2Cl)c1C(=O)N[C@@H]1C(=O)N2[C@@H]1SC(C)(C)[C@@H]2C(=O)O` [Cloxacillin]: the “% Enhancement in bioavailability, Piperine + BE from Zingiber officinale” value is given as 90%.

With `O=C(O)Cc1ccccc1Nc1c(Cl)cccc1Cl` [Diclofenac], the “% Enhancement in bioavailability, Piperine + BE from Zingiber officinale” value was found to be 140%.

In the case of `COc1ccc2[nH]c([S+]([O-])Cc3ncc(C)c(OC)c3C)nc2c1` (centres unmarked) [Omeprazole], the “% Enhancement in bioavailability, Piperine + BE from Zingiber officinale” value is listed as “Nil”.

For `CC[C@H]1OC(=O)[C@H](C)[C@@H](O[C@H]2C[C@@](C)(OC)[C@@H](O)[C@H](C)O2)[C@H](C)[C@@H](O[C@@H]2O[C@H](C)C[C@H](N(C)C)[C@H]2O)[C@](C)(O)C[C@@H](C)C(=O)[C@H](C)[C@@H](O)[C@]1(C)O` [Erythromycin], the “% Enhancement in bioavailability, Piperine + BE from Zingiber officinale” value came out at 105%.

For the compound `CNC(=C[N+](=O)[O-])NCCSCc1ccc(CN(C)C)o1` [Ranitidine], the “% Enhancement in bioavailability, Piperine + BE from Zingiber officinale” value is reported as 165%.

The next data set is described as follows: Bioavailability enhancement of a drug/nutraceutical/herbal product given with bioenhancer (BE) to fasted rats; plasma drug level by HPLC, 0-24 hrs. The note with it: drug + BE from Zingiber officinale (extract 30 mg/kg or fraction No 1 15 mg/kg).
Take `CN(Cc1cc(Br)cc(Br)c1N)C1CCCCC1` [Bromhexine]: the “% Enhancement in bioavailability, BE from Zingiber officinale” value stood at 46%.

Still in this data set, the particulars now being: drug + piperine 8 mg/kg + BE from Zingiber officinale.
In the case of `CC(C)(C)NCC(O)c1ccc(O)c(CO)c1` (centres unmarked) [Salbutamol], the “% Enhancement in bioavailability, Piperine + BE from Zingiber officinale” value came out at 92%.

Consider `CC(C)NCC(O)COc1cccc2ccccc12` (centres unmarked) [Propranolol], for which the “% Enhancement in bioavailability, Piperine + BE from Zingiber officinale” value is 104%.

`CO[C@H]1/C=C/O[C@@]2(C)Oc3c(C)c(O)c4c(O)c(c(/C=N/N5CCN(C)CC5)c(O)c4c3C2=O)NC(=O)/C(C)=C\C=C\[C@H](C)[C@H](O)[C@@H](C)[C@@H](O)[C@@H](C)[C@H](OC(C)=O)[C@@H]1C` [Rifampicin]: the “% Enhancement in bioavailability, Piperine + BE from Zingiber officinale” value is 98%.

For the compound `NCCCC[C@H](N[C@@H](CCc1ccccc1)C(=O)O)C(=O)N1CCC[C@H]1C(=O)O` [Lisinopril], the “% Enhancement in bioavailability, Piperine + BE from Zingiber officinale” value came out at 100%.

Consider `Nc1ccc(S(=O)(=O)c2ccc(N)cc2)cc1` [Dapsone], for which the “% Enhancement in bioavailability, Piperine + BE from Zingiber officinale” value amounted to 55%.

For `CN/C(=N/CCSCc1nc[nH]c1C)NC#N` [Cimetidine], the “% Enhancement in bioavailability, Piperine + BE from Zingiber officinale” value is reported as 76%.

`CC(=O)N1CCN(c2ccc(OCC3COC(Cn4ccnc4)(c4ccc(Cl)cc4Cl)O3)cc2)CC1` (centres unmarked) [Ketoconazole]: the “% Enhancement in bioavailability, Piperine + BE from Zingiber officinale” value worked out at 100%.

As to `COc1cccc2c1C(=O)c1c(O)c3c(c(O)c1C2=O)C[C@@](O)(C(=O)CO)C[C@@H]3O[C@H]1C[C@H](N)[C@H](O)[C@H](C)O1` [Doxorubicin], the “% Enhancement in bioavailability, Piperine + BE from Zingiber officinale” value was determined as 75%.

Regarding `O=c1[nH]cc(F)c(=O)[nH]1` [5-Fluorouracil], the “% Enhancement in bioavailability, Piperine + BE from Zingiber officinale” value stood at 93%.

Take `CC1(C)S[C@@H]2[C@H](NC(=O)[C@H](N)c3ccc(O)cc3)C(=O)N2[C@H]1C(=O)O` [Amoxycillin]: the “% Enhancement in bioavailability, Piperine + BE from Zingiber officinale” value is on record as 90%.

With `CN(Cc1cc(Br)cc(Br)c1N)C1CCCCC1` [Bromhexine], the “% Enhancement in bioavailability, Piperine + BE from Zingiber officinale” value was 75%.

As to `Cc1cn([C@H]2C[C@H](N=[N+]=[N-])[C@@H](CO)O2)c(=O)[nH]c1=O` [Zidovudine], the “% Enhancement in bioavailability, Piperine + BE from Zingiber officinale” value was 126%.

As for `Cn1c(=O)c2[nH]cnc2n(C)c1=O` [Theophylline], the “% Enhancement in bioavailability, Piperine + BE from Zingiber officinale” value stood at 80%.

With `CS(=O)(=O)Nc1ccc([N+](=O)[O-])cc1Oc1ccccc1` [Nimesulide], the “% Enhancement in bioavailability, Piperine + BE from Zingiber officinale” value is recorded as 165%.

Regarding `CCc1cc(C(N)=S)ccn1` [Ethionamide], the “% Enhancement in bioavailability, Piperine + BE from Zingiber officinale” value stood at 48%.

In the case of `CN(Cc1cnc2nc(N)nc(N)c2n1)c1ccc(C(=O)N[C@@H](CCC(=O)O)C(=O)O)cc1` [Methotrexate], the “% Enhancement in bioavailability, Piperine + BE from Zingiber officinale” value turned out to be 49%.

For `Cc1nnc2n1-c1ccc(Cl)cc1C(c1ccccc1)=NC2` [Aiprazolam, Alprazolam], the “% Enhancement in bioavailability, Piperine + BE from Zingiber officinale” value was 70%.

Values taken from patent US20030170326A1, “Bioavailability enchancing activity of Zingiber officinale Linn and its extracts/fractions thereof” (COUNCIL OF SCIENTIFIC AND INDUSTRIAL RESEARCH, priority 2001, published 2003).
